What was measured:
[1] = test system: IL-6; assay: LPS-induced IL-6 secretion reduction in RAW264.7 cells (ELISA); format: cell-based, mouse; conditions: sample 100 μg/ml 1 h, then LPS 1 μg/ml 24 h, Table 2
Experimental: In DMEM (Dulbecco Modified Eagle Medium, Hyclone, Thermo Scientific) medium to which 10% Fetal Bovine Serum was added, RAW264.7 cells, a mouse macrophage family, were suspended at a concentration of 1×10^5 cells/ml, and culture was conducted in a 5% CO2 humidified incubator at 37° C. The cultured RAW264.7 cells were inoculated into a 48 well plate by 5×10^4 cells/ml and stabilized for 15 hours. Then, the culture solution was treated with a glycerol derivative compounds of the type shown in Table 2 and 3 below for 1 hour and then was treated with 1 μg/ml of Lipopolysaccaride (LPS) of a cell stimulator, and subsequent further incubation was conducted for 24 hours. Thereafter 0.5 ml of the culture supernatant was collected for each well and centrifuged (at 3000 rpm, 5 minutes) to recover the supernatant. The IL-6 level in the recovered supernatant was measured according to the manual provided by the Mouse IL-6 ELISA set (BD Biosciences). The day before ELISA was carried out, the IL-6 capture antibody was diluted in phosphate buffered saline, coated on a microwell, and then stored at 4° C. overnight. Each well was washed three times with a buffer solution and then blocked with 2% Bovine Serum Albumin (BSA) for 1 hour at room temperature. After washing with buffer solution three times, […] of sample was dispensed into each well and left at room temperature for 2 hours. Detection antibody which was washed 3 times with washing buffer solution and diluted was dispensed into each well and allowed to react at room temperature for 1 hour and left at room temperature for 1 hour. Thereafter, the secondary HRP conjugated antibody was reacted at room temperature for 30 minutes, washed three times with a buffer solution, and treated with 50 μl of stop solution for each well, and then the optical density was measured at 450 nm with an ELISA microplate leader. The results of the IL-6 expression reduction rate (IL-6 concentration) are shown in Table 2, Table 3, FIG. 1 and FIG. 2 below.

[2] = test system: STAT3; assay: IL-6-induced STAT3 activity, SEAP expression in HEK-Blue IL-6 cells; format: cell-based; conditions: HEK-Blue IL-6 cells; for decrease of STAT3 activity compared to the IL-6 cytokine-treated group: 100 μg/ml; for STAT3 activity_SEAP expression(%) (average ± deviation): sample 100 μg/ml 1 h, then IL-6 5 ng/ml 24 h, negative control = 100
Experimental: HEK-Blue™ IL-6 cells were used to confirm STAT3 activity by STAT3-induced SEAP (secreted embryonic alkaline phosphatase) expression. In DMEM (Hyclone, Thermo Scientific) medium to which 10% Fetal Bovine Serum was added, HEK-Blue™ IL-6 cells were cultured at a concentration of 1×10^5 cells/ml, and maintained in a 5% CO2 humidified incubator at 37° C. The cultured HEK-Blue™ IL-6 cells were inoculated by 1×10^5 cells/ml. Then, the culture solution was treated with a glycerol derivative compounds of the type shown in Table 4 below for 1 hour and then IL-6 (5 ng/ml) was further incubated for 24 hours for STAT3 activity. Thereafter, the culture supernatant was collected for each well and centrifuged (at 3000 rpm, 5 minutes) to recover the supernatant. The SEAP expression level in the recovered supernatant was mixed with Quanti blue reagent and the supernatant at a ratio of 1:10 and left at 37° C. for about 30 minutes. Then, the SEAP concentration was confirmed at 650 nm wavelength using a spectrophotometer, and the results (STAT3 activity inhibitory ability) thereof are shown in Table 4 and FIG. 3 below.

[3] = test system: CXCL8 (IL-8); assay: CXCL8 (IL-8) expression reduction in Gemcitabine-treated THP-1 cells (ELISA); format: cell-based, human; conditions: THP-1 cells; for CXCL8 [IL-8] concentration (average ± deviation): sample 100 μg/ml 1 h, then Gemcitabine 2 μg/ml 24 h
Experimental: In RPMI (Hyclone, Thermo Scientific) medium to which 10% Fetal Bovine Serum was added, THP-1 cells, a human macrophage family, were suspended at a concentration of 1×10^5 cells/ml, and culture was conducted in a 5% CO2 humidified incubator at 37° C. The cultured THP-1 cells were inoculated into a 12 well plate by 1×10^6 cells/ml and stabilized for 30 minutes. Then, the culture solution was treated with a glycerol derivative compounds of the type shown in Table 6 below for 1 hour and then was treated with Gemcitabine (2 μg/ml) of a cell stimulator, and subsequent further incubation was conducted for 24 hours. Thereafter 1.5 ml of the culture supernatant was collected for each well and centrifuged (at 3000 rpm, 5 minutes) to recover the supernatant. The CXCL8 (IL-8) level in the recovered supernatant was measured according to the manual provided by the human IL-8 ELISA set (BD Biosciences). The day before ELISA was carried out, the IL-8 capture antibody was diluted in phosphate buffered saline, coated on a microwell, and then stored at 4° C. overnight. Each well was washed three times with a buffer solution and then blocked with 2% Bovine Serum Albumin (BSA) for 1 hour at room temperature. After washing with washing buffer solution three times, 100 μl of sample was dispensed into each well and left at room temperature for 2 hours. Detection antibody which was washed 3 times with washing buffer and diluted was dispensed into each well and allowed to react at room temperature for 1 hour and left at room temperature for 1 hour. Thereafter, the secondary HRP conjugated antibody was reacted at room temperature for 30 minutes, washed three times with a washing buffer, and treated with 50 μl of stop solution for each well, and then the optical density was measured at 450 nm with an ELISA microplate leader.

[4] = test system: HL-60 cells; assay: Migration of HL-60 cell line toward THP-1 culture supernatant (transmigration assay); format: cell-based, human; conditions: supernatant of THP-1 cells treated with sample 100 μg/ml 1 h, then Gemcitabine 2 μg/ml 24 h
Experimental: In RPMI (Hyclone, Thermo Scientific) medium to which 10% Fetal Bovine Serum was added, THP-1 cells, a human macrophage family, were subcultured at a concentration of 1×10^5 cells/ml, and culture was conducted in a 5% CO2 humidified incubator at 37° C. In order to prepare the THP-1 cell culture solution to be treated in the lower well during the transmigration assay, first, the cultured THP-1 cells were inoculated into a 12 well plate by 1×10^6 cells/ml and stabilized for 30 minutes. Then, the culture solution was treated with a glycerol derivative compounds of the type shown in Table 7 below for 1 hour and then was treated with Gemcitabine (2 μg/ml) of a cell stimulator, and subsequent further incubation was conducted for 24 hours. Thereafter 1.5 ml of the culture supernatant was collected for each well and centrifuged (at 3000 rpm, 5 minutes) to recover the supernatant. The CXCL8 (IL-8) level in the recovered supernatant was measured according to the manual provided by Cultrex 96 well Laminin Cell Invasion assay. The day before Transmigration assay was carried out, a 1× Lamin I solution was treated in the upper Invasion Chamber and coated. Thereafter, in RPMI (Hyclone, Thermo Scientific) medium to which 10% Fetal Bovine Serum was added, the cultured HL-60 cells were despensed of 5×10^4 cells/chamber, and 150 μl of the THP-1 culture supernatant prepared in advance was added to the lower chamber. Thereafter the upper chamber was removed, and the cells were attached to the bottom of the lower chamber by a centrifuge, and then the supernatant was removed. Cell dissociation/Calcein-AM solution was added and reacted for 1 hour. Then, the value obtained using a fluorescence spectroscopy was calculated by converting the number of cells.

[5] = test system: STAT6; assay: IL-4-induced STAT6 activity, pGL4-STAT6 luciferase reporter in A549 cells; format: cell-based; conditions: sample 100 μg/ml 1 h, then IL-4 (2 ng/ml) 20 h, Table 9
Experimental: In DMEM (Dulbecco Modified Eagle Medium, Hyclone, Thermo Scientific) medium to which 10% Fetal Bovine Serum was added, A549 cells were subcultured at a concentration of 1×10^5 cells/ml, and culture was conducted in a 5% CO2 humidified incubator at 37° C. The cultured A549 cells were inoculated into a 48 well plate by 1×10^5 cells/ml and stabilized for 18 hours. Thereafter, pGL4-STAT6 reporter vector containing a STAT6 binding promoter portion was mixed with Attractene to induce complex formation at room temperature for 15 minutes. This complex was treated with the cells and then further incubated for 24 hours. Thereafter, the culture solution was treated with a glycerol derivative compounds of the type shown in Table 9 and 10 below for 1 hour, and then IL-4 (2 ng/ml or 10 ng/ml) was further incubated for 20 hours for STAT6 activity. Thereafter, the culture supernatant was removed for each well, and the remaining cells were lysed with a cell lysis buffer, and then cell lysate was recovered. 90 μl of luciferase reagent was mixed with 10 μl of the recovered cell lysate, and the degree of fluorescence was confirmed using a luminometer. The results are shown in Table 9, Table 10, FIG. 9 and FIG. 10 below.

[6] = test system: IL-4; assay: PKC activator-induced IL-4 secretion reduction in EL-4 cells (ELISA); format: cell-based, mouse; conditions: sample 100 μg/ml 2 h, then PKC activator 18 h, Table 11
Experimental: In DMEM (Dulbecco Modified Eagle Medium, Hyclone, Thermo Scientific) medium to which 10% Fetal Bovine Serum was added, EL-4 cells, a mouse lymphoma family, were subcultured at a concentration of 1×10^5 cells/ml, and culture was conducted in a 5% CO2 humidified incubator at 37° C. The cultured EL-4 cells were inoculated into a 48 well plate by 5×10^4 cells/ml and stabilized for 30 hours. Then, the culture solution was treated with a glycerol derivative compounds of the type shown in Table 11 and 12 below for 2 hours. Thereafter, it were treated with 0.5 μg/ml of PKC activator (p10, some kind of PMA) of a cell stimulator, and subsequent further incubation were conducted for 18 hours. Thereafter 0.5 ml of the culture supernatant was collected for each well and centrifuged (at 3000 rpm, 5 minutes) to recover the supernatant. The IL-4 level in the recovered supernatant was measured according to the manual provided by the Mouse IL-4 ELISA set (BD Biosciences). The day before ELISA was carried out, the IL-4 capture antibody was diluted in phosphate buffered saline, coated on a microwell, and then stored at 4° C. overnight. Each well was washed three times with a buffer solution and then blocked with 2% Bovine Serum Albumin (BSA) for 1 hour at room temperature. After washing with buffer solution three times, 100 μl of sample was dispensed into each well and left at room temperature for 2 hours. Detection antibody which was washed 3 times with washing buffer solution and diluted was dispensed into each well and allowed to react at room temperature for 1 hour and left at room temperature for 1 hour. Thereafter, the secondary HRP conjugated antibody was reacted at room temperature for 30 minutes, washed three times with buffer solution, and treated with 50 μl of stop solution for each well, and then the optical density was measured at 450 nm with an ELISA microplate leader. The results of the measured expression reduction rate ([…]) were shown in Table 11, Table 12, FIG. 11 and FIG. 12 below.

Row | Compound | IL-6 concentration (average ± deviation) [1] [µg/mL] | decrease of STAT3 activity compared to the IL-6 cytokine-treated group [2] | STAT3 activity_SEAP expression(%) (average ± deviation) [2] | CXCL8 [IL-8] concentration (average ± deviation) [3] [pg/µL] | Number of HL-60 cells migrated through Transwell [4] [Cell Number] | STAT6 activity_Luciferase activity (average ± deviation) [5] | reduction of CXCL8 (IL-8) expression/secretion ([3]; Gemcitabine-treated, 100 μg/ml) | IL-4 concentration (average ± deviation) [6] [pg/µL]
1 | CCCCC/C=C\C/C=C\CCCCCCCC(=O)OC(COC)COC(=O)CCCCCCCCCCCCCCC (centres unmarked) [EC_A13] | 0.266 ± 0.024 | about 25% | 167.2 ± 8.4 | 96.6 ± 0.2 | 8679.7 | 1150.2 ± 44.9 | – | –
2 | CCCCC/C=C\C/C=C\CCCCCCCC(=O)OC(COCC)COC(=O)CCCCCCCCCCCCCCC (centres unmarked) [EC_A14] | 0.277 ± 0.002 | – | 185.0 ± 30.0 | – | – | 539.2 ± 40.3 | – | –
3 | CCCCC/C=C\C/C=C\CCCCCCCC(=O)OC(COCCC)COC(=O)CCCCCCCCCCCCCCC (centres unmarked) [EC_A15] | 0.125 ± 0.003 | – | 232.0 ± 50.4 | 73.8 ± 0.0 | 28884.8 | 707.5 ± 51.3 | about 20% | –
4 | CCCCC/C=C\C/C=C\CCCCCCCC(=O)OC(COC(=O)CCCCCCCCCCCCCCC)COC(=O)c1ccccc1 (centres unmarked) [EC_A16] | 0.238 ± 0.008 | about 25% | 171.1 ± 17.5 | 135.1 ± 2.3 | 26348.9 | 964.5 ± 170.3 | – | –
5 | CCCCC/C=C\C/C=C\CCCCCCCC(=O)OC(COC(=O)CCC)COC(=O)CCCCCCCCCCCCCCC (centres unmarked) [EC_A17] | 0.154 ± 0.001 | about 25% | 185.4 ± 19.3 | 110 ± 0.2 | 30692.8 | 476.2 ±113.4 | – | –
6 | CCCCC/C=C\C/C=C\CCCCCCCC(=O)OC(COC(=O)CCCCCCCCCCCCCCC)COC(=O)C(C)CC (centres unmarked) [EC_A20] | 0.055 ± 0.001 | – | 196.7 ± 35.1 | – | – | 609.5 ± 197.0 | – | 194.2 ± 47.5
7 | CCCCC/C=C\C/C=C\CCCCCCCC(=O)OC(COC(=O)CCCCCCCCCCCCCCC)COC(=O)C(C)(C)C (centres unmarked) [EC_A22] | – | about 25% | 169.5 ± 10.5 | – | 1181.1 | 645.5 ± 111.4 | – | –
8 | CCCCC/C=C\C/C=C\CCCCCCCC(=O)OC(COC(=O)CN)COC(=O)CCCCCCCCCCCCCCC (centres unmarked) [EC_A57] | 0.120 ± 0.002 | – | 243.0 ± 29.5 | – | – | – | – | 745.6 ± 8.35

From patent US12187672B2, “1,2-diacylglycerol compound, preparation method therefor, and immunomodulator containing same as active ingredient” (ENZYCHEM LIFESCIENCES CORPORATION, priority 2018, dated 2025)
